Our source for the MIC values is patent publication EP0332156B1, “Cephem compounds and processes for preparation thereof” (FUJISAWA PHARMACEUTICAL CO., LTD., priority 1988, dated 1989).

In this experiment the test system is E. coli 31. Put plainly: In vitro antibacterial activity (MIC), two-fold agar-plate dilution method. The format is cell-based. The following applies: Escherichia coli; test strain E. coli 31; heart infusion agar; incubation at 37°C for 20 hours; inoculum 10^8 viable cells per ml. The method, then:
In vitro antibacterial activity was determined by the two-fold agar-plate dilution method as described below. One loopful of an overnight culture of each test strain in Trypticase-soy broth (10^8 viable cells per ml) was streaked on heart infusion agar (HI-agar) containing graded concentrations of representative test compound, and the minimal inhibitory concentration (MIC) was expressed in terms of µg/mℓ after incubation at 37°C for 20 hours.

As for `CON=C(C(=O)NC1C(=O)N2C(C(=O)[O-])=C(C[n+]3ccc4n3CCN4)CSC12)c1csc(N)n1` (stereo not shown) [(1)], the MIC was ≤ 0.025 mg/L.
